Test results: patent US7279491B2 (Janssen Pharmaceutica N.V., priority 2002, dated 2007)

Biological target: T1, human histamine H3 receptor (Homo sapiens, UniProt Q9Y5N1)
T1 construct: One microgram of supercoiled H3 receptor cDNA was added to the cells and mixed; expressed in transfected cells; membranes
Assay: {3H}-N-methylhistamine binding to membranes of histamine H3 receptor-expressing SK-N-MC cells
Conditions: 0.8 nM {3H}-N-methylhistamine, 45 min at 25° C., Ki=(IC50)/(1+({L}/(Kd)), Kd 800 pM)
Procedure: Transfection of Cells with Human Histamine Receptor
A 10 cm tissue culture dish with a confluent monolayer of SK-N-MC cells was split two days prior to transfection. Using sterile technique the media was removed and the cells were detached from the dish by the addition of trypsin. One fifth of the cells were then placed onto a new 10 cm dish. Cells were grown in a 37° C. incubator with 5% CO2 in Minimal Essential Media Eagle with 10% Fetal Bovine Serum. After two days cells were approximately 80% confluent. These were removed from the dish with trypsin and pelleted in a clinical centrifuge. The pellet was then re-suspended in 400 μL complete media and transferred to an electroporation cuvette with a 0.4 cm gap between the electrodes. One microgram of supercoiled H3 receptor cDNA was added to the cells and mixed. The voltage for the electroporation was set at 0.25 kV, the capacitance was set at 960 μF. After electroporation the cells were diluted into 10 mL complete media and plated onto four 10 cm dishes. Because of the variability in the efficiency of electroporation, four different concentrations of cells were plated. The ratios used were; 1:20, 1:10, 1:5, with the remainder of the cells being added to the fourth dish. The cells were allowed to recover for 24 h before adding the selection media (complete media with 600 μg/mL G418). After 10 days dishes were analyzed for surviving colonies of cells. Dishes with well-isolated colonies were used. Cells from individual colonies were isolated and tested. SK-N-MC cells were used because they give efficient coupling for inhibition of adenylate cyclase. The clones that gave the most robust inhibition of adenylate cyclase in response to histamine were used for further study.
{^3H}-N-methylhistamine Binding
Cell pellets from histamine H3 receptor-expressing SK-N-MC cells were homogenized in 20 mM Tris HCl/0.5 mM EDTA. Supernatants from an 800 g spin were collected, recentrifuged at 30,000 g for 30 min. Pellets were re-homogenized in 50 mM Tris/5 mM EDTA (pH 7.4). Membranes were incubated with 0.8 nM {^3H}-N-methylhistamine plus/minus test compounds for 45 min at 25° C. and harvested by rapid filtration over GF/C glass fiber filters (pretreated with 0.3% polyethylenimine) followed by four washes with ice-cold buffer. Filters were dried, added to 4 mL scintillation cocktail and then counted on a liquid scintillation counter. Non-specific binding was defined with 10 μM histamine. The pKi values were calculated based on a Kd of 800 pM and a ligand concentration ({L}) of 800 pM according to the formula: Ki=(IC50)/(1+({L}/(Kd))

T1 sequence (Q9Y5N1 whole entry): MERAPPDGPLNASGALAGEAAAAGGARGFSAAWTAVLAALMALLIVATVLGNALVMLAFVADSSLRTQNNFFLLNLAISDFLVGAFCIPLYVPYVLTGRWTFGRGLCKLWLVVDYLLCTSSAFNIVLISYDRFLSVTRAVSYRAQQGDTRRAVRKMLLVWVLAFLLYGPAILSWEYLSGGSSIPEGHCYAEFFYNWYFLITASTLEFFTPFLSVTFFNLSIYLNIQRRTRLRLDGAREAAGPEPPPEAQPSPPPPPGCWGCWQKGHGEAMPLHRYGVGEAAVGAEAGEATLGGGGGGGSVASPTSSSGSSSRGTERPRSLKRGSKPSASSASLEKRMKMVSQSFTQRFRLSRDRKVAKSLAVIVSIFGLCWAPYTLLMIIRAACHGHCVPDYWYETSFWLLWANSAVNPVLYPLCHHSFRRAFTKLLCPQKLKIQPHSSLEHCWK

Compared with `c1cc(N2CCC(N3CCCCC3)CC2)ccc1CN1CCCCC1` [Example 53, 1′-(4-Piperidin-1-ylmethyl-phenyl)-{1,4′}bipiperidinyl], `c1cc(N2CCC(N3CCCCC3)CC2)ccc1CN1CCOCC1` [Example 52, 1′-(4-Morpholin-4-ylmethyl-phenyl)-{1,4′}bipiperidinyl] is 2-fold higher in Ki: 2.7 nM for the first, 5.5 nM for the second.

Going from `O=[N+]([O-])c1cc(CN2CCCCC2)ccc1N1CCC(CN2CCCC2)CC1` [Example 69] to `Cc1cc(CN2CCCCC2)ccc1N1CCC(CN2CCCC2)CC1` [Example 75], the Ki rises from 2 nM to 6 nM (3-fold).

First: c1cc(CN2CCCC2)cc(N2CCC(CN3CCCC3)CC2)c1 [Example 34, 4-Pyrrolidin-1-ylmethyl-1-(3-pyrrolidin-1-ylmethyl-phenyl)-piperidine]
Second: c1cc(CN2CCCCC2)cc(N2CCC(CN3CCCC3)CC2)c1 [Example 35, 1-{3-(4-pyrrolidin-1-ylmethyl-piperidin-1-yl)-benzyl}-piperidine]
The Ki of the first is 1.7-fold lower: 6 nM for the first, 10 nM for the second.

Going from `c1cc(CN2CCOCC2)cc(N2CCC(CN3CCCC3)CC2)c1` [Example 33, 4-{3-(4-Pyrrolidin-1-ylmethyl-piperidin-1-yl)-benzyl}-morpholine] to `c1cc(CN2CCSCC2)cc(N2CCC(CN3CCCC3)CC2)c1` [Example 32, 4-{3-(4-Pyrrolidin-1-ylmethyl-piperidin-1-yl)-benzyl}-thiomorpholine], the Ki falls from 20 nM to 9 nM (2.2-fold). The second binds more tightly here.

First: Fc1ccc(NCc2ccc(N3CCC(CN4CCCC4)CC3)cc2)cc1 [Example 59, (4-Fluoro-phenyl)-{4-(4-pyrrolidin-1-ylmethyl-piperidin-1-yl)-benzyl}-amine]
Second: c1ccc(NCC2CCN(c3ccc(CN4CCCC4)cc3)CC2)cc1 [Example 55, Phenyl-{1-(4-pyrrolidin-1-ylmethyl-phenyl)-piperidin-4-ylmethyl}-amine]
The Ki of the first is 6-fold higher: 48 nM for the first, 8 nM for the second. The second binds more tightly here.

First: CCN(CC)CC1CCN(c2ccc(CN3CCCC3)cc2)CC1 [Example 25, Diethyl-{1-(4-pyrrolidin-1-ylmethyl-phenyl)-piperidin-4-ylmethyl}-amine]
Second: CN1CCN(Cc2ccc(N3CCC(CN4CCCC4)CC3)cc2)CC1 [Example 39, 1-Methyl-4-{4-(4-pyrrolidin-1-ylmethyl-piperidin-1-yl)-benzyl}-piperazine]
The Ki of the first is 7.5-fold lower: 0.8 nM for the first, 6 nM for the second.

Compared with `FC(F)(F)c1cc(N2CCC(CN3CCCC3)CC2)ccc1CN1CCCCC1` [Example 72, 1-[4-(4-Pyrrolidin-1-ylmethyl-piperidin-1-yl)-2-trifluoromethyl-benzyl]-piperidine], `c1cc(N2CCC(CN3CCCCC3)CC2)ccc1CN1CCCCC1` [Example 57, 1-{1-(4-Piperidin-1-ylmethyl-phenyl)-piperidin-4-ylmethyl}-piperidine] is 3.2-fold lower in Ki: 8 nM for the first, 2.5 nM for the second.

Compared with `OC1CCN(Cc2ccc(N3CCC(CN4CCCC4)CC3)cc2)CC1` [Example 38, 1-{4-(4-Pyrrolidin-1-ylmethyl-piperidin-1-yl)-benzyl}-piperidin-4-ol], `c1cc(N2CCC(CN3CCSCC3)CC2)ccc1CN1CCCC1` [Example 29, 4-{1-(4-Pyrrolidin-1-ylmethyl-phenyl)-piperidin-4-ylmethyl}-thiomorpholine] is 2.5-fold lower in Ki: 5 nM for the first, 2 nM for the second.

First: FC(F)(F)c1cc(N2CCC(CN3CCCC3)CC2)ccc1CN1CCOCCOCCOCCOCC1 [Example 81, 13-[4-(4-pyrrolidin-1-ylmethyl-piperidin-1-yl)-2-trifluoromethyl-benzyl]-1,4,7,10-tetraoxa-13-aza-cyclopentadecane Ditrifluoromethanesulfonate]
Second: c1ccc(N2CCC(CN3CCCC3)CC2)c(CN2CCOCC2)c1 [Example 43, 4-{2-(4-Pyrrolidin-1-ylmethyl-piperidin-1-yl)-benzyl}-morpholine]
The Ki of the first is 140-fold lower: 34 nM for the first, 4800 nM for the second. The first binds more tightly here.

Going from `O=[N+]([O-])c1cc(CN2CCOCC2)ccc1N1CCC(CN2CCCC2)CC1` [Example 70, 4-[3-Nitro-4-(4-pyrrolidin-1-ylmethyl-piperidin-1-yl)-benzyl]-morpholine] to `c1ccc(N2CCC(CN3CCCCC3)CC2)c(CN2CCOCC2)c1` [Example 22, 4-{2-(4-piperidin-1-ylmethyl-piperidin-1-yl)-benzyl}-morpholine], the Ki rises from 36 nM to 4500 nM (120-fold).

Going from `CN(CCc1ccccc1)CCC1CCN(c2ccc(CN3CCCCC3)cc2)C1` (stereo not shown) [Example 62, Methyl-phenethyl-{2-{1-(4-piperidin-1-ylmethyl-phenyl)-pyrrolidin-3-yl}-ethyl}-amine] to `c1ccc(NCC2CCN(c3ccc(CN4CCCC4)cc3)CC2)nc1` [Example 56, Pyridin-2-yl-{1-(4-pyrrolidin-1-ylmethyl-phenyl)-piperidin-4-ylmethyl}-amine], the Ki rises from 1.3 nM to 3 nM (2.3-fold). The first binds more tightly here.

Going from `c1cc(N2CCC(CN3CCCC3)CC2)ccc1CNC1CCCCC1` [Example 37, Cyclohexyl-{4-(4-pyrrolidin-1-ylmethyl-piperidin-1-yl)-benzyl}-amine] to `c1cc(N2CCC(CNC3CCCCC3)CC2)ccc1CN1CCCC1` [Example 23, Cyclohexyl-{1-(4-pyrrolidin-1-ylmethyl-phenyl)-piperidin-4-ylmethyl}-amine], the Ki falls from 2 nM to 0.9 nM (2.2-fold). The second binds more tightly here.

First: c1cc(N2CCC(CCN3CCOCC3)C2)ccc1CN1CCCCC1 (stereo not shown) [Example 60, 4-{2-{1-(4-Piperidin-1-ylmethyl-phenyl)-pyrrolidin-3-yl}-ethyl}-morpholine]
Second: c1cc(N2CCC(NC3CCCCC3)CC2)ccc1CN1CCOCC1 [Example 46, Cyclohexyl-{1-(4-morpholin-4-ylmethyl-phenyl)-piperidin-4-yl}-amine]
The Ki of the first is 25-fold lower: 1.1 nM for the first, 28 nM for the second. The first binds more tightly here.

Compared with `FC(F)(F)c1cc(CN2CCC(N3CCCC3)CC2)ccc1N1CCC(CN2CCCC2)CC1` [Example 76, 1-{1-[4-(4-Pyrrolidin-1-yl-piperidin-1-ylmethyl)-2-trifluoromethyl-phenyl]-piperidin-4-ylmethyl}-pyrrolidine], `OCC1CCN(Cc2ccc(N3CCC(CN4CCCC4)CC3)c(C(F)(F)F)c2)CC1` [Example 82, {1-[4-(4-Pyrrolidin-1-ylmethyl-piperidin-1-yl)-3-trifluoromethyl-benzyl]-piperidin-4-yl}-methanol] is 19-fold higher in Ki: 9 nM for the first, 170 nM for the second.

First: c1cc(N2CCC(CN3CCCC3)CC2)ccc1CN1CCCCCCCCCCCC1 [Example 36, 1-{4-(4-Pyrrolidin-1-ylmethyl-piperidin-1-yl)-benzyl}-azacyclotridecane]
Second: c1cc(N2CCC(CN3CCCCCCCCCCCC3)CC2)ccc1CN1CCCC1 [Example 24, 1-{1-(4-Pyrrolidin-1-ylmethyl-phenyl)-piperidin-4-ylmethyl}-azacyclotridecane]
The Ki of the first is 3.8-fold lower: 6 nM for the first, 23 nM for the second. The first binds more tightly here.

First: CN(C)Cc1ccc(N2CCC(CN3CCCC3)CC2)c(F)c1 [Example 79, [3-Fluoro-4-(4-pyrrolidin-1-ylmethyl-piperidin-1-yl)-benzyl]-dimethyl-amine]
Second: Cc1cc(CN2CCCC2)ccc1N1CCC(CN2CCCC2)CC1 [Example 74]
The Ki of the first is 4-fold higher: 4 nM for the first, 1 nM for the second. The second binds more tightly here.

First: FC(F)(F)c1ccc(C2CCN(Cc3ccc(N4CCC(CN5CCCC5)CC4)cc3C(F)(F)F)CC2)cc1 [Example 77, 1-(1-{3-Trifluoromethyl-4-[4-(4-trifluoromethyl-phenyl)-piperidin-1-ylmethyl]-phenyl}-piperidin-4-ylmethyl)-pyrrolidine]
Second: CN(C1CCCCC1)C1CCN(c2ccc(CN3CCOCC3)cc2)CC1 [Example 47, Cyclohexyl-methyl-{1-(4-morpholin-4-ylmethyl-phenyl)-piperidin-4-yl}-amine]
The Ki of the first is 28-fold higher: 160 nM for the first, 5.8 nM for the second. The second binds more tightly here.
